Source: patent US6358885B1, “Substituted phenylheterocyclic herbicides” (Mississippi State University, priority 1992, dated 2002)

Assays:
barley = assay: Test B preemergence/postemergence greenhouse plant response rating 0 to 10; assay type: in vivo, Hordeum vulgare; details: 0 to 10 scale
Procedure, shortened: (§1)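 Test chemicals, dissolved in a non-phytotoxic solvent, were applied to soil at planting and, at the same time, over foliage of seedlings at the one to four leaf stage.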

barnyardgrass = assay: as above; assay type: in vivo, Echinochloa crus-galli; details: 0 to 10 scale
Procedure, shortened: as §1

blackgrass = assay: as above; assay type: in vivo, Alopecurus myosuroides; details: 0 to 10 scale
Procedure, shortened: as §1

chickweed = assay: as above; assay type: in vivo, Stellaria media; details: 0 to 10 scale
Procedure, shortened: as §1

corn [1] = assay: as above; assay type: in vivo, Zea mays; details: 0 to 10 scale
Procedure, shortened: as §1

sorghum = assay: as above; assay type: in vivo, Sorghum bicolor; details: 0 to 10 scale
Procedure, shortened: as §1

sugar beet = assay: as above; assay type: in vivo, Beta vulgaris; details: 0 to 10 scale
Procedure, shortened: as §1

velvetleaf = assay: as above; assay type: in vivo, Abutilon theophrasti; details: 0 to 10 scale
Procedure, shortened: as §1

purple nutsedge = assay: as above; assay type: in vivo, Cyperus rotundus; details: 0 to 10 scale
Procedure, shortened: as §1

bedstraw = assay: Test C preemergence/postemergence greenhouse plant response rating 0 to 100; assay type: in vivo, Galium aparine; details: for Plant response rating, Bedstraw: 62 g/ha, 0 to 100 scale
Procedure, shortened: (§2)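 Compounds in non-phytotoxic solvent went onto sandy loam before emergence (seeded one day earlier) or onto plants at the one-to-four leaf stage. Duck salad was treated via flood water (~2.5 cm, maintained) over silt loam.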

corn [2] = assay: as above; assay type: in vivo, Zea mays; details: for Plant response rating, Corn: 62 g/ha, 0 to 100 scale
Procedure, shortened: as §2

crabgrass = assay: as above; assay type: in vivo, Digitaria sanguinalis; details: for Plant response rating, Crabgrass: 62 g/ha, 0 to 100 scale
Procedure, shortened: as §2

morningglory = assay: as above; assay type: in vivo, Ipomoea hederacea; details: for Plant response rating, Morningglory: 62 g/ha, 0 to 100 scale
Procedure, shortened: as §2

rape = assay: as above; assay type: in vivo, Brassica napus; details: for Plant response rating, Rape: 62 g/ha, 0 to 100 scale
Procedure, shortened: as §2

ryegrass = assay: as above; assay type: in vivo, Lolium multiflorum; details: for Plant response rating Ryegrass: 62 g/ha, 0 to 100 scale
Procedure, shortened: as §2

wheat = assay: as above; assay type: in vivo, Triticum aestivum
Procedure, shortened: as §2

wild oat = assay: as above; assay type: in vivo, Avena fatua
Procedure, shortened: as §2

rice = assay: Test C flood test plant response rating 0 to 100; assay type: in vivo, Oryza sativa
Procedure, shortened: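 Compounds in non-phytotoxic solvent applied preemergence to sandy loam one day after planting, postemergence at the 1–4 leaf stage, or to ~2.5 cm floodwater over silt loam.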

[3] = POSTEMERGENCE, 62 g/ha, 0 to 100 scale

In the case of `CCN1C(=O)COc2cc(F)c(-c3nn4c(c3Cl)CCCC4)cc21` [Compound 54], the “Plant response rating, Barley” value (barley; POSTEMERGENCE, Rate 10 g/ha) is reported as 4, the “Plant response rating, Barley” value (barley; POSTEMERGENCE, Rate 50 g/ha) is reported as 4 and the “Plant response rating, Barley” value (barley; PREEMERGENCE, Rate 10 g/ha) is reported as 0. For the same molecule, the “Plant response rating, Barley” value (barley; PREEMERGENCE, Rate 50 g/ha) was 2, the “Plant response rating, Barnyardgrass” value (barnyardgrass; POSTEMERGENCE, Rate 10 g/ha) was 3 and the “Plant response rating, Barnyardgrass” value (barnyardgrass; POSTEMERGENCE, Rate 50 g/ha) was 5. For the same molecule, the “Plant response rating, Barnyardgrass” value (barnyardgrass; PREEMERGENCE, Rate 10 g/ha) was 0, the “Plant response rating, Barnyardgrass” value (barnyardgrass; PREEMERGENCE, Rate 50 g/ha) was 3 and the “Plant response rating, Blackgrass” value (blackgrass; POSTEMERGENCE, Rate 10 g/ha) was 5. The “Plant response rating, Blackgrass” value (blackgrass; POSTEMERGENCE, Rate 50 g/ha) was 6, the “Plant response rating, Blackgrass” value (blackgrass; PREEMERGENCE, Rate 10 g/ha) was 3 and the “Plant response rating, Blackgrass” value (blackgrass; PREEMERGENCE, Rate 50 g/ha) was 3. The “Plant response rating, Chickweed” value (chickweed; POSTEMERGENCE, Rate 50 g/ha) was 10, the “Plant response rating, Chickweed” value (chickweed; PREEMERGENCE, Rate 10 g/ha) was 9 and the “Plant response rating, Chickweed” value (chickweed; PREEMERGENCE, Rate 50 g/ha) was 10. The “Plant response rating, Corn” value (corn [1]; POSTEMERGENCE, Rate 10 g/ha) was 3, the “Plant response rating, Corn” value (corn [1]; POSTEMERGENCE, Rate 50 g/ha) was 3 and the “Plant response rating, Corn” value (corn [1]; PREEMERGENCE, Rate 50 g/ha) was 0. The “Plant response rating, Sorghum” value (sorghum; POSTEMERGENCE, Rate 10 g/ha) was 3, the “Plant response rating, Sorghum” value (sorghum; POSTEMERGENCE, Rate 50 g/ha) was 3 and the “Plant response rating, Sorghum” value (sorghum; PREEMERGENCE, Rate 50 g/ha) was 1. For the same molecule, the “Plant response rating, Sugar beet” value (sugar beet; POSTEMERGENCE, Rate 10 g/ha) was 10, the “Plant response rating, Sugar beet” value (sugar beet; POSTEMERGENCE, Rate 50 g/ha) was 10 and the “Plant response rating, Sugar beet” value (sugar beet; PREEMERGENCE, Rate 50 g/ha) was 9. The “Plant response rating, Velvetleaf” value (velvetleaf; POSTEMERGENCE, Rate 10 g/ha) was 8, the “Plant response rating, Velvetleaf” value (velvetleaf; POSTEMERGENCE, Rate 50 g/ha) was 9 and the “Plant response rating, Velvetleaf” value (velvetleaf; PREEMERGENCE, Rate 50 g/ha) was 10. The “Plant response rating, Nutsedge” value (purple nutsedge; POSTEMERGENCE, Rate 10 g/ha) was 2, the “Plant response rating, Nutsedge” value (purple nutsedge; POSTEMERGENCE, Rate 50 g/ha) was 2 and the “Plant response rating, Nutsedge” value (purple nutsedge; PREEMERGENCE, Rate 50 g/ha) was 0. The “Plant response rating, Bedstraw” value (bedstraw; POSTEMERGENCE) was 100, the “Plant response rating (0 to 100), Bedstraw” value (bedstraw; POSTEMERGENCE, Rate 1 g/ha) was 65 and the “Plant response rating (0 to 100), Bedstraw” value (bedstraw; POSTEMERGENCE, Rate 4 g/ha) was 85. For the same molecule, the “Plant response rating, Bedstraw” value (bedstraw; PREEMERGENCE) was 50, the “Plant response rating (0 to 100), Bedstraw” value (bedstraw; PREEMERGENCE, Rate 1 g/ha) was 0 and the “Plant response rating (0 to 100), Bedstraw” value (bedstraw; PREEMERGENCE, Rate 4 g/ha) was 0. The “Plant response rating (0 to 100), Bedstraw” value (bedstraw; Rate 16 g/ha, POSTEMERGENCE) was 100, the “Plant response rating (0 to 100), Bedstraw” value (bedstraw; Rate 16 g/ha, PREEMERGENCE) was 30 and the “Plant response rating, Corn” value (corn [2]; POSTEMERGENCE) was 50. The “Plant response rating (0 to 100), Corn” value (corn [2]; POSTEMERGENCE, Rate 1 g/ha) was 30, the “Plant response rating (0 to 100), Corn” value (corn [2]; POSTEMERGENCE, Rate 4 g/ha) was 30 and the “Plant response rating, Corn” value (corn [2]; PREEMERGENCE) was 40. For the same molecule, the “Plant response rating (0 to 100), Corn” value (corn [2]; PREEMERGENCE, Rate 1 g/ha) was 0, the “Plant response rating (0 to 100), Corn” value (corn [2]; PREEMERGENCE, Rate 4 g/ha) was 0 and the “Plant response rating (0 to 100), Corn” value (corn [2]; Rate 16 g/ha, POSTEMERGENCE) was 40. For the same molecule, the “Plant response rating (0 to 100), Corn” value (corn [2]; Rate 16 g/ha, PREEMERGENCE) was 0, the “Plant response rating, Crabgrass” value (crabgrass; POSTEMERGENCE) was 50 and the “Plant response rating (0 to 100), Crabgrass” value (crabgrass; POSTEMERGENCE, Rate 1 g/ha) was 10. The “Plant response rating (0 to 100), Crabgrass” value (crabgrass; POSTEMERGENCE, Rate 4 g/ha) was 20, the “Plant response rating, Crabgrass” value (crabgrass; PREEMERGENCE) was 50 and the “Plant response rating (0 to 100), Crabgrass” value (crabgrass; PREEMERGENCE, Rate 1 g/ha) was 0. The “Plant response rating (0 to 100), Crabgrass” value (crabgrass; PREEMERGENCE, Rate 4 g/ha) was 0, the “Plant response rating (0 to 100), Crabgrass” value (crabgrass; Rate 16 g/ha, POSTEMERGENCE) was 30 and the “Plant response rating (0 to 100), Crabgrass” value (crabgrass; Rate 16 g/ha, PREEMERGENCE) was 0. For the same molecule, the “Plant response rating, Morningglory” value (morningglory; POSTEMERGENCE) was 100, the “Plant response rating (0 to 100), Morningglory” value (morningglory; POSTEMERGENCE, Rate 1 g/ha) was 60 and the “Plant response rating (0 to 100), Morningglory” value (morningglory; POSTEMERGENCE, Rate 4 g/ha) was 100. For the same molecule, the “Plant response rating, Morningglory” value (morningglory; PREEMERGENCE) was 20, the “Plant response rating (0 to 100), Morningglory” value (morningglory; PREEMERGENCE, Rate 1 g/ha) was 0 and the “Plant response rating (0 to 100), Morningglory” value (morningglory; PREEMERGENCE, Rate 4 g/ha) was 0. The “Plant response rating (0 to 100), Morningglory” value (morningglory; Rate 16 g/ha, POSTEMERGENCE) was 100, the “Plant response rating (0 to 100), Morningglory” value (morningglory; Rate 16 g/ha, PREEMERGENCE) was 0 and the “Plant response rating, Rape” value (rape; POSTEMERGENCE) was 100. The “Plant response rating (0 to 100), Rape” value (rape; POSTEMERGENCE, Rate 1 g/ha) was 50, the “Plant response rating (0 to 100), Rape” value (rape; POSTEMERGENCE, Rate 4 g/ha) was 50 and the “Plant response rating, Rape” value (rape; PREEMERGENCE) was 10. The “Plant response rating (0 to 100), Rape” value (rape; PREEMERGENCE, Rate 1 g/ha) was 0, the “Plant response rating (0 to 100), Rape” value (rape; PREEMERGENCE, Rate 4 g/ha) was 0 and the “Plant response rating (0 to 100), Rape” value (rape; Rate 16 g/ha, POSTEMERGENCE) was 100. For the same molecule, the “Plant response rating (0 to 100), Rape” value (rape; Rate 16 g/ha, PREEMERGENCE) was 0, the “Plant response rating Ryegrass” value (ryegrass; POSTEMERGENCE) was 60 and the “Plant response rating (0 to 100), Ryegrass” value (ryegrass; POSTEMERGENCE, Rate 1 g/ha) was 10. For the same molecule, the “Plant response rating (0 to 100), Ryegrass” value (ryegrass; POSTEMERGENCE, Rate 4 g/ha) was 30, the “Plant response rating Ryegrass” value (ryegrass; PREEMERGENCE) was 70 and the “Plant response rating (0 to 100), Ryegrass” value (ryegrass; PREEMERGENCE, Rate 1 g/ha) was 0. The “Plant response rating (0 to 100), Ryegrass” value (ryegrass; PREEMERGENCE, Rate 4 g/ha) was 0, the “Plant response rating (0 to 100), Ryegrass” value (ryegrass; Rate 16 g/ha, POSTEMERGENCE) was 40 and the “Plant response rating (0 to 100), Ryegrass” value (ryegrass; Rate 16 g/ha, PREEMERGENCE) was 30. The “Plant response rating, Wheat” value (wheat; [3]) was 60, the “Plant response rating (0 to 100), Wheat” value (wheat; POSTEMERGENCE, Rate 1 g/ha) was 20 and the “Plant response rating (0 to 100), Wheat” value (wheat; POSTEMERGENCE, Rate 4 g/ha) was 40. For the same molecule, the “Plant response rating (0 to 100), Wheat” value (wheat; PREEMERGENCE, Rate 1 g/ha) was 0, the “Plant response rating (0 to 100), Wheat” value (wheat; PREEMERGENCE, Rate 4 g/ha) was 0 and the “Plant response rating (0 to 100), Wheat” value (wheat; Rate 16 g/ha, POSTEMERGENCE) was 60. For the same molecule, the “Plant response rating (0 to 100), Wheat” value (wheat; Rate 16 g/ha, PREEMERGENCE) was 10, the “Plant response rating, Wild oat” value (wild oat; [3]) was 60 and the “Plant response rating (0 to 100), Wild oat” value (wild oat; POSTEMERGENCE, Rate 1 g/ha) was 20. The “Plant response rating (0 to 100), Wild oat” value (wild oat; POSTEMERGENCE, Rate 4 g/ha) was 30, the “Plant response rating (0 to 100), Wild oat” value (wild oat; PREEMERGENCE, Rate 1 g/ha) was 0 and the “Plant response rating (0 to 100), Wild oat” value (wild oat; PREEMERGENCE, Rate 4 g/ha) was 0. The “Plant response rating (0 to 100), Wild oat” value (wild oat; Rate 16 g/ha, POSTEMERGENCE) was 40, the “Plant response rating (0 to 100), Wild oat” value (wild oat; Rate 16 g/ha, PREEMERGENCE) was 10 and the “Plant response rating (0 to 100), Rice Japonica” value (rice; POSTEMERGENCE section, flood test, Rate 1 g/ha) was 0. The “Plant response rating (0 to 100), Rice Japonica” value (rice; POSTEMERGENCE section, flood test, Rate 4 g/ha) was 0, the “Plant response rating (0 to 100), Rice Japonica” value (rice; Rate 16 g/ha, under POSTEMERGENCE head (flood test species)) was 55 and the “Plant response rating Rice Japonica” value (rice; flood test species listed under POSTEMERGENCE, 62 g/ha, 0 to 100 scale) was 85.
